This is an account of results in patent US10138253B2, “Imidazopyridine macrocycles as inhibitors of human immunodeficiency virus replication” (priority 2015, dated 2018).

For data set [1] the following is noted: ether bond, 20-membered ring, PPh3/DIAD, THF.
For data set [2] the following is noted: ether bond, PPh3/DIAD, THF.
Where [3] appears, read: from COC(=O)[C@@H](OC(C)(C)C)c1c(C)cc2nc(-c3cccc(-c4cc(C)ccc4O)c3)cn2c1N1CCC(C)(OCCOC[C@@H](C)O)CC1, 39.2 mM, 18.0 h, 2 steps.
[4] abbreviates: from COC(=O)[C@@H](OC(C)(C)C)c1c(C)c(C)c2nc(-c3cccc(-c4c(O)cc(C)cc4F)c3)cn2c1N1CCC(C)(OCCOC[C@@H](C)O)CC1, 6.7 mM, 1.0 h, 2 steps.
The mark [5] stands for this setting: from COC(=O)[C@@H](OC(C)(C)C)c1c(C)cc2nc(-c3cccc(-c4cc(F)c(F)cc4O)c3)cn2c1N1CCC(C)(OCCOC[C@@H](C)O)CC1, 10.0 mM, 0.5 h.
The mark [6] stands for this setting: from COC(=O)[C@@H](OC(C)(C)C)c1c(C)cc2nc(-c3cccc(-c4c(O)cc(C)cc4F)c3)cn2c1N1CCC(C)(OCCOC[C@@H](C)O)CC1, 42.7 mM, 0.5 h, 2 steps.
[7] abbreviates: from COC(=O)[C@@H](OC(C)(C)C)c1c(C)c(C)c2nc(-c3cccc(-c4ccc(C)cc4O)c3)cn2c1N1CCC(C)(OCCOC[C@@H](C)O)CC1, 20.0 mM, 0.5 h.
The mark [8] stands for this setting: from COC(=O)[C@@H](OC(C)(C)C)c1c(C)cc2nc(-c3cccc(-c4ccc(C)cc4O)c3)cn2c1N1CCC(C)(OCCOC[C@@H](C)O)CC1, 1.41 mM, 1.0 h.
Setting [9] is: from COC(=O)[C@@H](OC(C)(C)C)c1c(C)c(C)c2nc(-c3cccc(-c4cc(F)c(F)cc4O)c3)c(C)n2c1N1CCC(C)(OCCOC[C@@H](C)O)CC1, 2.77 mM, 1.0 h, 2 steps.
[10] abbreviates: from COC(=O)[C@@H](OC(C)(C)C)c1c(C)c(C)c2nc(-c3cccc(-c4cc(F)ccc4O)c3)cn2c1N1CCC(C)(OCCOC[C@@H](C)O)CC1, 47.0 mM, 18.0 h.

Where two headings read alike, the source gives them in different places.

In data set [1] (setting [3]), `COC(=O)[C@@H](OC(C)(C)C)c1c(C)cc2nc3cn2c1N1CCC(C)(CC1)OCCOC[C@H](C)Oc1ccc(C)cc1-c1cccc-3c1` registered a ring closure, isolated yield of 65%. The ring closure, yield of all isomers in data set [2] (setting [3]) amounted to 65%.
Take `COC(=O)[C@@H](OC(C)(C)C)c1c(C)c(C)c2nc3cn2c1N1CCC(C)(CC1)OCCOC[C@H](C)Oc1cc(C)cc(F)c1-c1cccc-3c1`: the ring closure, isolated yield in data set [1] (setting [4]) was 81%. Further, the ring closure, yield of all isomers in data set [2] (setting [4]) was determined as 81%.
For `COC(=O)[C@@H](OC(C)(C)C)c1c(C)cc2nc3cn2c1N1CCC(C)(CC1)OCCOC[C@H](C)Oc1cc(F)c(F)cc1-c1cccc-3c1`, in data set [1] (setting [5]), the ring closure, isolated yield stood at 95%. This molecule also displayed a ring closure, yield of all isomers in data set [2] (setting [5]) of 95%.
The molecule `COC(=O)[C@@H](OC(C)(C)C)c1c(C)cc2nc3cn2c1N1CCC(C)(CC1)OCCOC[C@H](C)Oc1cc(C)cc(F)c1-c1cccc-3c1` came in with a ring closure, isolated yield in data set [1] (setting [6]) of 6%. The molecule further came in with a ring closure, yield of all isomers in data set [2] (setting [6]) of 6%.
For `COC(=O)[C@@H](OC(C)(C)C)c1c(C)c(C)c2nc3cn2c1N1CCC(C)(CC1)OCCOC[C@H](C)Oc1cc(C)ccc1-c1cccc-3c1`, the ring closure, isolated yield in data set [1] (setting [7]) was found to be 47%. Moreover, in data set [2] (setting [7]), the ring closure, yield of all isomers was 47%.
In data set [1] (setting [8]), `COC(=O)[C@@H](OC(C)(C)C)c1c(C)cc2nc3cn2c1N1CCC(C)(CC1)OCCOC[C@H](C)Oc1cc(C)ccc1-c1cccc-3c1` displayed a ring closure, isolated yield of 65%. The ring closure, yield of all isomers in data set [2] (setting [8]) amounted to 65%.
On to `COC(=O)[C@@H](OC(C)(C)C)c1c(C)c(C)c2nc3c(C)n2c1N1CCC(C)(CC1)OCCOC[C@H](C)Oc1cc(F)c(F)cc1-c1cccc-3c1`, for which the ring closure, isolated yield in data set [1] (setting [9]) worked out at 30%. Besides, the ring closure, yield of all isomers in data set [2] (setting [9]) was 30%.
In data set [1] (setting [10]), `COC(=O)[C@@H](OC(C)(C)C)c1c(C)c(C)c2nc3cn2c1N1CCC(C)(CC1)OCCOC[C@H](C)Oc1ccc(F)cc1-c1cccc-3c1` registered a ring closure, isolated yield of 59%. The molecule also had a ring closure, yield of all isomers in data set [2] (setting [10]) of 59%.
